# Measurements as given in US20250221983A1, “PHARMACEUTICAL COMPOSITION FOR PREVENTING RELAPSE INTO CANNABIS USE AND APPLICATION THEREOF” (Shenzhen ScienCare Pharmaceutical Co., Ltd, priority 2023, published 2025).
# “Also recorded” adds a separate entry of the source.
# Key:
# Format in all cases: in vivo, LE rats
# [1] = system: LE rat self-administration model; test: Environmental cue-induced relapse test in WIN55,212-2 self-administration model; settings: rimonabant 2 mg/kg, implants 4 tablets/rat
# Protocol: (§1) In each self-administration process, the effective lever was activated, and the injection system performed automatic administration ([…]). Each injection was about 0.1 mL, with a duration of 4 s-6 s. Meanwhile, each injection would be accompanied by the effective lever light turning on for 10 s and the room light turning off for 20 s. […] Data of activating the ineffective lever was recorded, but no drug injection was given. During the training, the computer automatically recorded the number of effective and ineffective lever presses and the number of injections. During the training, food was restricted to 12 g.
# [2] = system: LE rat self-administration model; test: Drug (WIN55,212-2) and environmental cue-induced relapse test in self-administration model; settings: rimonabant 2 mg/kg, implants 4 tablets/rat
# Protocol: The rats received 2 h of environmental regression again. During the regression, only the spatial environment during the self-administration training was presented, without other clues such as lights and pump sounds as well as drug injections. The computer automatically recorded the number of behavioral responses of rats, and the regression was continued until reaching the criteria.
# In the rimonabant group, rats were administered the rimonabant injection (2 mg/kg, ip) 15 min before the test through intraperitoneal injection at a dose of 2 mg per kilogram of body weight. In the control group, rats were administered normal saline 15 min before the test. In the implant administration groups, there would be no administration. All rats were administered cannabis (WIN55,212-2 injection 0.3 mg/kg, ip) through intraperitoneal injection at a dose of […] of body weight, and then a 2-h drug and environmental cue-induced relapse test was immediately performed. The cues were consistent with those of self-administration training, including levers and syringe pump sound, but no drug in the syringe pump. The number of injections and effective lever pressing data were recorded by the computer.
# In the control group, rats were administered normal saline 15 min before the test, and in the implant groups, there would be no administration. All rats were administered WIN55,212-2 (0.3 mg/kg, i.p) through intraperitoneal administration, and then a 2-h drug and environmental cue-induced relapse test was immediately performed. The cues were consistent with those of self-administration training, including levers and syringe pump sound, but no drug in the syringe pump. The number of injections and effective lever pressing data were recorded by the computer.
# [3] = system: LE rat self-administration; test: Addiction formation: WIN55,212-2 self-administration training
# Protocol: as §1
# In the control group and rimonabant group, sham operations were performed. After 3 days of postoperative care, addiction formation training was started on the fourth day.
# In the control group and rimonabant group, rats were administered the corresponding compound 15 min before the daily training. The rimonabant was at a dosage of 2 mg/kg, i.p. In the control group, rats were administered normal saline, and in the implant administration groups, there would be no administration. The training operation was the same as the self-administration training in example 1. During the training, the computer automatically recorded the number of effective and ineffective lever presses and the number of injections. During the training, food was restricted to 12 g.
# [4] = system: LE rat self-administration; test: Regression of drug-seeking behavior after self-administration training
# Protocol: After the establishment of the self-administration model, the rats received 2 h of environmental regression for each round of regression training. During the regression, only the spatial environment and lever during the training were presented, without other clues such as lights and pump sounds as well as drug injections. The computer automatically recorded the number of behavioral responses of rats, and the rats reached the regression criteria (i.e., the total number of effective lever presses decreased to 20% of the total number of effective lever presses on the first day of the regression training or less than 10 times).
# [5] = 2 h environmental cue-induced relapse test, n = 10
# [6] = last regression before cue test, n = 10
# [7] = 2 h test after WIN55,212-2 ip, n = 10
# [8] = re-regression before cue + drug test, n = 10
# [9] = female LE rats, rimonabant 2 mg/kg, implants 4 tablets/rat, n = 10
compound,measurement,setting,value
Cc1c(C(=O)NN2CCCCC2)nn(-c2ccc(Cl)cc2Cl)c1-c1ccc(Cl)cc1 [Rimonabant],"Number of effective lever presses, Cue priming",[1]; [5],57.70 ± 10.27
same,"Number of ineffective lever presses, Cue priming",[1]; [5],12.10 ± 3.33
same,"Number of effective lever presses, Last-Ext",[1]; [6],6.80 ± 1.62
same,"Number of ineffective lever presses, Last-Ext",[1]; [6],3.10 ± 0.86
same,"cue-induced relapse behavior (number of effective lever presses compared with the control group), in words",[1],no significant inhibition effect; also recorded: not significant
same,"Number of effective lever presses, Cue + drug priming",[2]; [7],63.50 ± 16.15
same,"Number of ineffective lever presses, Cue + drug priming",[2]; [7],8.10 ± 2.08
same,"Number of effective lever presses, Re-Ext",[2]; [8],10.30 ± 2.72
same,"Number of ineffective lever presses, Re-Ext",[2]; [8],5.20 ± 3.0
same,"cue and drug-induced relapse behavior (number of effective lever presses compared with the control group), in words",[2],no significant inhibition effect; also recorded: not significant
same,"inhibition of the increase in the number of effective lever presses caused by addiction formation of win55,212-2, in words",[3]; compared with the control group,significantly inhibited; also recorded: significant inhibition effect
same,Addiction formation (26 days): Number of effective lever presses,[3]; [9],45.70 ± 8.21
same,Addiction formation (26 days): Number of ineffective lever presses,[3]; [9],9.49 ± 1.05
same,"effect on the regression process of cannabis addiction, in words",[4]; compared with other groups,may accelerate the regression process and reduce the regression days
same,Regression (13 sessions): First stabilization,[4]; [9],7 days
same,Regression (13 sessions): Number of effective lever presses,[4]; [9],9.27 ± 2.21
